From PubChem BioAssay AID1597 (NINDS Approved Drug Screening Program, 2009) come the findings set out here.

This experiment has as its system Drosophila SCA1 polyglutamine model, toxicity suppression. Put plainly: Reduction of SCA1 polyglutamine toxicity, EC50 from dose response in whole drosophila (AID 1597).

SMILES strings stand for the structures. Inconclusive results are not listed.

Broadly, the EC50 is the midpoint of the concentration-response curve. Take `NS(=O)(=O)c1cc(C2(O)NC(=O)c3ccccc32)ccc1Cl` (centres undefined): the EC50 is 5000 nM. With `CCCCCCCCCCCCCCCC(=O)OC/C=C(C)/C=C/C=C(C)/C=C/C1=C(C)CCCC1(C)C` the figure was 275 nM; with `N#C/C(=C\c1ccc(O)cc1)C(=O)O`, 50 nM; with `CC(N)CCCC(C)(C)O` (centres undefined), 50 nM.

As for `C[C@@H]1CC2C3CCC4=CC(=O)C=C[C@]4(C)[C@@]3(F)[C@@H](O)C[C@]2(C)[C@@]1(O)C(=O)COP(=O)(O)O` (some centres undefined), the EC50 is 750 nM. Turning to `CC(=O)OCC(=O)[C@H]1CCC2C3CCC4=CC(=O)CC[C@]4(C)C3CC[C@@]21C` (some centres undefined), the EC50 was 3000 nM.

Turning to `C[C@@H]1O[C@@H](O[C@H]2[C@H](Oc3cc(O)c4c(c3)O[C@H](c3ccc(O)cc3)CC4=O)O[C@H](CO)[C@@H](O)[C@@H]2O)[C@H](O)[C@H](O)[C@H]1O`, the 50% effective concentration (EC50) is 5000 nM. On to `OCC(S)CS` (centres undefined), for which the EC50 is 300 nM. Regarding `Cc1cc(C(C)(C)C)cc(C)c1CC1=NCCN1`, the EC50 is 250 nM. To `C[N+](C)(C)CCOC(N)=O` belongs 3000 nM; to `C=C1C2CC[C@H]3[C@]4(C)C[C@H](OC5OC(CO)C(OS(=O)(=O)O)C(OS(=O)(=O)O)C5OC(=O)CC(C)C)C[C@@H](C(=O)O)[C@H]4CC[C@]3(C2)[C@H]1O` (some centres undefined), 225 nM; to `NC(Cc1cc(I)c(Oc2ccc(O)c(I)c2)c(I)c1)C(=O)O` (centres undefined), 5000 nM. With `CN1CCOC(c2ccccc2)c2ccccc2C1` (centres undefined) the figure was 50 nM; with `C[N+](C)(C)CC(=O)[O-]`, 3000 nM.
